Results as given in US8163702B2, “Treatment of melanoma” (SciClone Pharmaceuticals, Inc., priority 2006, dated 2012).

Tested on: B16 cell line
Experiment: Apoptosis by DNA flow cytometric analysis (propidium iodide)
Format: cell-based, murine
Conditions: propidium iodide flow cytometry
Description: Apoptosis was assessed by DNA flow cytometric analysis. At each concentration of SCV-07, adherent cells were detached from the plates by trypsinization, pooled with the floating cells and fixed with 50% acetone:methanol 1:4 in PBS. The cells were suspended (1×10^6/ml) in PBS containing 50 μg/ml of propidium iodide (PI) and 100 KU/ml of RNase and incubated in the dark at room temperature for 30 min. The DNA content per cell was evaluated by PI fluorescence measured on a linear scale using a FACScan flow cytometer (Becton & Dickinson, San Jose, Calif.). Apoptotic cells show a diminished staining, in the red fluorescence channel, below the G0/G1 population of normal diploid cells, and are represented by a broad hypodiploid peak due to DNA fragmentation following apoptotic events. This is easily distinguishable from the narrow peak of cells with diploid DNA content. The fraction of apoptotic cells was therefore calculated by integrating the pre-G1 peak.

N[C@H](CCC(=O)N[C@@H](Cc1c[nH]c2ccccc12)C(=O)O)C(=O)O [SCV-07, γ-D-glutamyl-L-tryptophan]
percentage of apoptotic cell death: could not evidence any significant effect
